Experimental data published in ChEMBL document CHEMBL5356980, “Linker optimization and activity validation of a cell surface vimentin targeted homo-dimeric peptoid antagonist for lung cancer stem cells” (Bioorg Med Chem, 2024).
Activity calls are given as the source filed them. The rule behind the calls is not given here.

Experiments:
[1] = test system: NCI-H1299; test: Induction of apoptosis in human NCI-H1299 cells assessed as early apoptotic cells at 10 uM incubated for 12 hrs by annexin V/PI staining based flow cytometry analysis (reference value: 0.73%); assay type: functional
[2] = test system: NCI-H2122; test: Antiproliferative activity against human NCI-H2122 cells expressing vimentin assessed as inhibition of cell growth incubated for 3 days by MTS assay; assay type: functional, cell-based; details: NCI-H2122, 72 h
[3] = test system: NCI-H460; test: Antiproliferative activity against human NCI-H460 cells expressing vimentin assessed as inhibition of cell growth incubated for 3 days by MTS assay; assay type: functional, cell-based; details: NCI-H460, 72 h
[4] = test system: NCI-H1299; test: Antiproliferative activity against human NCI-H1299 cells expressing vimentin assessed as inhibition of cell growth incubated for 3 days by MTS assay; assay type: functional, cell-based; details: NCI-H1299, 72 h
[5] = molecular target: Vimentin (Homo sapiens, UniProt P08670); test: Binding affinity to his-tagged recombinant Vimentin (unknown origin) assessed as dissociation constant by ELISA analysis
[6] = test system: NCI-H1299; test: Inhibition of colony formation in human NCI-H1299 cells incubated for 8 days by crystal violet staining based analysis; assay type: functional, cell-based
[7] = test system: NCI-H1299; test: Induction of apoptosis in human NCI-H1299 cells assessed as late apoptotic cells at 10 uM incubated for 12 hrs by annexin V/PI staining based flow cytometry analysis (reference value: 2.05%); assay type: functional
[8] = test system: NCI-H460; test: Induction of apoptosis in human NCI-H460 cells assessed as late apoptotic cells at 10 uM incubated for 12 hrs by annexin V/PI staining based flow cytometry analysis (reference value: 6.19%); assay type: functional
[9] = test system: NCI-H460; test: Induction of apoptosis in human NCI-H460 cells assessed as late apoptotic cells at 20 uM incubated for 12 hrs by annexin V/PI staining based flow cytometry analysis (reference value: 6.19%); assay type: functional
[10] = test system: NCI-H1299; test: Antimigratory activity against human NCI-H1299 assessed as inhibition of cell migration incubated for 24 hrs by crystal violet staining based microscopic analysis; assay type: functional; details: NCI-H1299, 24 h
[11] = test system: NCI-H1299; test: Inhibition of cell migration of human NCI-H1299 cells assessed as reduction in wound distance at 10 uM incubated for 24 hrs by crystal violet staining based microscopic analysis; assay type: functional
[12] = test system: NCI-H460; test: Induction of apoptosis in human NCI-H460 cells assessed as viable cells at 10 uM incubated for 12 hrs by annexin V/PI staining based flow cytometry analysis (reference value: 90.9%); assay type: functional; details: read-out: Activity
[13] = test system: NCI-H1299; test: Inhibition of cell migration of human NCI-H1299 cells assessed as reduction in wound closure incubated for 24 hrs by crystal violet staining based microscopic analysis; assay type: functional; details: NCI-H1299, 24 h
[14] = test system: NCI-H358; test: Antiproliferative activity against human NCI-H358 cells expressing vimentin assessed as inhibition of cell growth incubated for 3 days by MTS assay; assay type: functional, cell-based; details: NCI-H358, 72 h
[15] = test system: NCI-H1299; test: Induction of apoptosis in human NCI-H1299 cells assessed as viable cells at 20 uM incubated for 12 hrs by annexin V/PI staining based flow cytometry analysis (reference value: 94.6%); assay type: functional; details: read-out: Activity
[16] = test system: NCI-H460; test: Inhibition of cell migration of human NCI-H460 cells incubated for 24 hrs by crystal violet staining based microscopic analysis; assay type: functional; details: dose <= 10000.0 nM
[17] = test system: HBEC3-KT; test: Antiproliferative activity against human HBEC3-KT cells assessed as inhibition of cell growth incubated for 3 days by MTS assay; assay type: toxicity, cell-based; details: 72 h, time 3 day
[18] = test system: NCI-H460; test: Inhibition of colony formation in human NCI-H460 cells incubated for 8 days by crystal violet staining based analysis; assay type: functional, cell-based
[19] = test system: NCI-H460; test: Induction of apoptosis in human NCI-H460 cells assessed as viable cells at 20 uM incubated for 12 hrs by annexin V/PI staining based flow cytometry analysis (reference value: 90.9%); assay type: functional; details: read-out: Activity
[20] = test system: NCI-H2009; test: Antiproliferative activity against human NCI-H2009 cells expressing vimentin assessed as inhibition of cell growth incubated for 3 days by MTS assay; assay type: functional, cell-based; details: NCI-H2009, 72 h
[21] = test system: NCI-H460; test: Inhibition of colony formation in human NCI-H460 cells at 300 nM incubated for 8 days by crystal violet staining based analysis; assay type: functional, cell-based; details: time 8.0 day
[22] = test system: NCI-H1299; test: Antiproliferative activity against human NCI-H1299 cells assessed as inhibition of cell growth measured for 2 hrs by MTS assay; assay type: functional, cell-based; details: NCI-H1299, 2 h
[23] = test system: NCI-H1299; test: Inhibition of cell migration of human NCI-H1299 cells incubated for 24 hrs by crystal violet staining based microscopic analysis; assay type: functional; details: dose <= 10000.0 nM
[24] = test system: NCI-H1299; test: Induction of apoptosis in human NCI-H1299 cells assessed as late apoptotic cells at 20 uM incubated for 12 hrs by annexin V/PI staining based flow cytometry analysis (reference value: 2.05%); assay type: functional
[25] = test system: NCI-H460; test: Induction of apoptosis in human NCI-H460 cells assessed as early apoptotic cells at 20 uM incubated for 12 hrs by annexin V/PI staining based flow cytometry analysis (reference value: 0.00%); assay type: functional
[26] = test system: NCI-H1299; test: Induction of apoptosis in human NCI-H1299 cells assessed as early apoptotic cells at 20 uM incubated for 12 hrs by annexin V/PI staining based flow cytometry analysis (reference value: 0.73%); assay type: functional
[27] = test system: NCI-H460; test: Induction of apoptosis in human NCI-H460 cells assessed as necrotic cells at 10 uM incubated for 12 hrs by annexin V/PI staining based flow cytometry analysis (reference value: 0.20%); assay type: functional
[28] = test system: NCI-H460; test: Induction of apoptosis in human NCI-H460 cells assessed as necrotic cells at 20 uM incubated for 12 hrs by annexin V/PI staining based flow cytometry analysis (reference value: 0.20%); assay type: functional
[29] = test system: NCI-H460; test: Inhibition of cell migration of human NCI-H460 cells assessed as reduction in wound distance at 10 uM incubated for 24 hrs by crystal violet staining based microscopic analysis; assay type: functional
[30] = test system: NCI-H460; test: Inhibition of cell migration of human NCI-H460 cells assessed as reduction in wound closure incubated for 24 hrs by crystal violet staining based microscopic analysis; assay type: functional; details: NCI-H460, 24 h
[31] = test system: NCI-H1299; test: Induction of apoptosis in human NCI-H1299 cells assessed as necrotic cells at 10 uM incubated for 12 hrs by annexin V/PI staining based flow cytometry analysis (reference value: 2.62%); assay type: functional
[32] = test system: NCI-H1299; test: Induction of apoptosis in human NCI-H1299 cells assessed as necrotic cells at 20 uM incubated for 12 hrs by annexin V/PI staining based flow cytometry analysis (reference value: 2.62%); assay type: functional
[33] = test system: NCI-H460; test: Induction of apoptosis in human NCI-H460 cells assessed as early apoptotic cells at 10 uM incubated for 12 hrs by annexin V/PI staining based flow cytometry analysis (reference value: 0.00%); assay type: functional
[34] = test system: NCI-H1299; test: Antiproliferative activity against human NCI-H1299 cells assessed as inhibition of cell growth measured for 18 hrs by MTS assay; assay type: functional, cell-based
[35] = test system: NCI-H1299; test: Induction of apoptosis in human NCI-H1299 cells assessed as viable cells at 10 uM incubated for 12 hrs by annexin V/PI staining based flow cytometry analysis (reference value: 94.6%); assay type: functional; details: read-out: Activity

Sequence of Vimentin (P08670 whole entry): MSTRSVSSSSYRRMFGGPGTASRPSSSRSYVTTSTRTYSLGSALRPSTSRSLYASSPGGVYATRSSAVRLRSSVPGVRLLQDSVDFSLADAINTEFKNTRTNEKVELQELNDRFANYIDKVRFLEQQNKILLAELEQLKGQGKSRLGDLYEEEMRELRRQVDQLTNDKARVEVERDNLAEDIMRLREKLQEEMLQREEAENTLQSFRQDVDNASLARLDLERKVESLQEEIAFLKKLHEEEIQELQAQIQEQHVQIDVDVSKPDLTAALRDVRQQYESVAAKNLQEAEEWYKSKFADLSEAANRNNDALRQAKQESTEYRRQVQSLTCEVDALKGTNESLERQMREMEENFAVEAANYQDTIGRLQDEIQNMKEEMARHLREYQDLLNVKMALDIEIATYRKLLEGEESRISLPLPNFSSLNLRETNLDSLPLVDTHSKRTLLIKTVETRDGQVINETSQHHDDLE

Question: Which Activity [1] does the source give for `COCCN(CC(=O)N[C@@H](CCCCN)C(=O)N[C@H](C)C(=O)NCC(=O)NCCCCC(NC(=O)CNC(=O)[C@@H](C)NC(=O)[C@H](CCCCN)NC(=O)CN(CCOC)C(=O)CN(Cc1ccc2c(c1)OCO2)C(=O)CN(CC(C)C)C(=O)CN(CCCCN)C(=O)CN(CCCCN)C(=O)CN(CC(C)C)C(=O)CNc1cccc(C(=O)c2ccccc2)c1)C(N)=O)C(=O)CN(Cc1ccc2c(c1)OCO2)C(=O)CN(CC(C)C)C(=O)CN(CCCCN)C(=O)CN(CCCCN)C(=O)CN(CC(C)C)C(=O)CNc1ccc(C(=O)c2ccccc2)cc1` (some centres not stated) here?
Answer: The Activity was 0.44%.

Question: What about the IC50 [2] of the same compound?
Answer: The IC50 was 30.5 µM.

Question: What about the IC50 [3] of the same compound?
Answer: Its IC50 is 8.6 µM.

Question: What about the IC50 [4] of the same compound?
Answer: Its IC50 is 6.7 µM.

Question: What about the Kd [5] of the same compound?
Answer: Its Kd is about 0.1 µM.

Question: And the IC50 ([6]; NCI-H1299, 192 h)?
Answer: The IC50 was 0.8 µM.

Question: And the inhibition ([6]; time 8.0 day)?
Answer: The inhibition was “Dose-Dependent Effect”.

Question: What about the Activity [7] of the same compound?
Answer: Its Activity is 8.1%.

Question: And the Activity [8]?
Answer: Its Activity is 15.3%.

Question: And the Activity [9]?
Answer: The Activity was 45.5%.

Question: What about the IC50 [10] of the same compound?
Answer: The IC50 was about 2 µM.

Question: What about the inhibition [11] of the same compound?
Answer: The inhibition was “Active”.

Question: And the viability at 10 µM [12]?
Answer: The viability at 10 µM was 62.2%.

Question: What about the IC50 [13] of the same compound?
Answer: Its IC50 is 2 µM.

Question: What about the IC50 [14] of the same compound?
Answer: Its IC50 is 12.8 µM.

Question: What about the viability at 20 µM [15] of the same compound?
Answer: The viability at 20 µM was 21.3%.

Question: What about the inhibition [16] of the same compound?
Answer: Its inhibition is “Dose-Dependent Effect”.

Question: What about the Activity [17] of the same compound?
Answer: The Activity was “Non-Toxic”.

Question: What about the IC50 ([18]; NCI-H460, 192 h) of the same compound?
Answer: Its IC50 is 0.4 µM.

Question: What about the inhibition ([18]; time 8.0 day) of the same compound?
Answer: The inhibition was “Dose-Dependent Effect”.

Question: And the viability at 20 µM [19]?
Answer: Its viability at 20 µM is 0.06%.

Question: And the IC50 [20]?
Answer: The IC50 was 14.3 µM.

Question: And the inhibition [21]?
Answer: The inhibition was “Active”.

Question: And the IC50 [22]?
Answer: The IC50 was about 21 µM.

Question: What about the inhibition [23] of the same compound?
Answer: The inhibition was “Dose-Dependent Effect”.

Question: What about the Activity [24] of the same compound?
Answer: The Activity was 26%.

Question: What about the Activity [25] of the same compound?
Answer: Its Activity is 1.09%.

Question: What about the Activity [26] of the same compound?
Answer: Its Activity is 0.46%.

Question: And the Activity [27]?
Answer: Its Activity is 1.3%.

Question: What about the Activity [28] of the same compound?
Answer: Its Activity is 12.8%.

Question: And the inhibition [29]?
Answer: The inhibition was “Active”.

Question: And the IC50 [30]?
Answer: Its IC50 is 4 µM.

Question: What about the Activity [31] of the same compound?
Answer: The Activity was 0.98%.

Question: What about the Activity [32] of the same compound?
Answer: The Activity was 1.37%.

Question: And the Activity [33]?
Answer: The Activity was 1.15%.

Question: And the Activity [34]?
Answer: The Activity was “inactive”.

Question: And the viability at 10 µM [35]?
Answer: The viability at 10 µM was 50.5%.
